Like-named read-outs stand apart in the source and are kept apart here.
What was measured:
[1] = test system: Probable mesothelioma (pleural effusion); experiment: MiCK assay, drug-induced apoptosis, Table 3 tumor A2; format: cell-based, human
Experimental: (§1) Data were obtained optically using Mie light-scattering.
When the optimal cell concentration is reached, put the cells in the plate and incubate overnight in the incubating chamber of the incubator (37° C.).

[2] = test system: NSCLC, bilateral well-differentiated adenocarcinoma (site 1A); experiment: MiCK assay, drug-induced apoptosis, Table 3 tumor B1; format: cell-based, human
Excerpt: as §1
(§2) Do a test well. […] Look at the well under the inverted microscope. […] Repeat until optimal cell concentration is found. Plate the cells into the wells.

[3] = test system: NSCLC, bilateral well-differentiated adenocarcinoma (site 1B); experiment: MiCK assay, drug-induced apoptosis, Table 3 tumor B2; format: cell-based, human
Excerpt: as §1, §2

[4] = test system: NSCLC, multi-focal, recurrent adenocarcinoma (site A); experiment: MiCK assay, drug-induced apoptosis, Table 3 tumor C1; format: cell-based, human
Excerpt: as §1, §2

[5] = test system: NSCLC, multi-focal, recurrent adenocarcinoma (site B); experiment: MiCK assay, drug-induced apoptosis, Table 3 tumor C2; format: cell-based, human
Excerpt: as §1, §2

[6] = test system: NSCLC, multi-focal, recurrent adenocarcinoma (right lung); experiment: MiCK assay, drug-induced apoptosis, Table 3 tumor D1; format: cell-based, human
Excerpt: as §1, §2

[7] = test system: NSCLC, multi-focal, recurrent adenocarcinoma (lymph node); experiment: MiCK assay, drug-induced apoptosis, Table 3 tumor D2; format: cell-based, human
Excerpt: as §1, §2

[8] = test system: NSCLC, multi-focal adenocarcinoma (site A); experiment: MiCK assay, drug-induced apoptosis, Table 3 tumor E1; format: cell-based, human
Excerpt: as §1, §2

[9] = test system: NSCLC, multi-focal adenocarcinoma (site B); experiment: MiCK assay, drug-induced apoptosis, Table 3 tumor E2; format: cell-based, human
Excerpt: as §1, §2

[10] = test system: Lung adenocarcinoma (pleural effusion); experiment: MiCK assay, drug-induced apoptosis, Table 4 tumor B1; format: cell-based, human
Excerpt: as §1
(§3) Patients: Three patients were included in this study. […] Patient A was diagnosed with pancreatic islet cell cancer; sample 1 was collected from lymph node and sample 2 was collected from the primary tumor. Patient B was diagnosed with lung cancer NSCLC adenocarcinoma; sample 1 was collected from pleural effusion and sample 2 was collected from solid tumor. […] Ages of the patients ranged from 51-79 years old with an average age of 65 years. One patient was […] and two were female.

[11] = test system: Lung adenocarcinoma (solid tumor); experiment: MiCK assay, drug-induced apoptosis, Table 4 tumor B2; format: cell-based, human
Excerpt: as §1, §3

[12] = test system: Pancreatic islet cell cancer (lymph node); experiment: MiCK assay, drug-induced apoptosis, Table 4 tumor A1
Experimental: (§4) After overnight incubation, chemotherapy drugs were added to the wells of the 96-well plate in 5 μL aliquots or to the wells of a 384-well plate in 2.5 μL aliquots using an automated pipettor. The number of drugs or drug combinations and the number of concentrations tested depended on the number of viable malignant cells that were isolated from the tumor specimen. The drug concentrations, determined by molarity, were those indicated by the manufacturer as the desired blood level concentration plus or minus one serial dilution if enough cells were available.
(§5) Following drug addition, the plate was incubated for 30 min. at 37° C. in a 5% carbon dioxide humidified atmosphere incubator. Each well was then overlayed with sterile mineral oil, and the plate was placed into the incubator chamber of a microplate spectrophotometric reader. The optical density at 600 nanometers was read and recorded every 5 minutes over a period of 48 hours.
(§6) Patients: Three patients were included in this study. Two tumor samples from different tumor sites were collected from each patient. Both samples from each patient were collected on the same day.

[13] = test system: Lung small cell carcinoma (site A); experiment: MiCK assay, drug-induced apoptosis, Table 4 tumor C1
Experimental: as §4, §5, §6

[14] = test system: Lung adenocarcinoma (site B); experiment: MiCK assay, drug-induced apoptosis, Table 4 tumor C2
Experimental: as §4
(§7) Following drug addition, the plate was incubated for 30 min. at 37° C. in a 5% carbon dioxide humidified atmosphere incubator. Each well was then overlayed with sterile mineral oil, and the plate was placed into the incubator chamber of a microplate spectrophotometric reader. The optical density at 600 nanometers was read and recorded every 5 minutes over a period of 48 hours. Optical density increases, which correlates with apoptosis, were converted to kinetic units (KU) of apoptosis by a proprietary software ProApo with a formula described in the Kravtsov reference incorporated by reference (i.e. Kravtsov V. et al. “Use of the Microculture Kinetic Assay of apoptosis to determine chemosensitivities of leukemias.” Blood 1998; 92:968-980).
(§8) Purified tumor cells were cultured for 48 hours with individual drugs, and drug-induced apoptosis was measured using the MiCK assay as described in Example 1. Data were obtained optically using Mie light-scattering.

[15] = test system: Pancreatic islet cell cancer (primary tumor); experiment: MiCK assay, drug-induced apoptosis, Table 4 tumor A2; conditions: 48 hours with drug
Experimental: as §4, §7, §8

[16] = Table 3 tumor A2: Probable mesothelioma (pleural effusion), 48 hours with drug
[17] = Table 3 tumor B1: NSCLC, bilateral well-differentiated adenocarcinoma (site 1A), 48 hours with drug
[18] = Table 3 tumor B2: NSCLC, bilateral well-differentiated adenocarcinoma (site 1B), 48 hours with drug
[19] = Table 3 tumor C1: NSCLC, multi-focal, recurrent adenocarcinoma (site A), 48 hours with drug
[20] = Table 3 tumor C2: NSCLC, multi-focal, recurrent adenocarcinoma (site B), 48 hours with drug
[21] = Table 3 tumor D1: NSCLC, multi-focal, recurrent adenocarcinoma (right lung), 48 hours with drug
[22] = Table 3 tumor D2: NSCLC, multi-focal, recurrent adenocarcinoma (lymph node), 48 hours with drug
[23] = Table 3 tumor E1: NSCLC, multi-focal adenocarcinoma (site A), 48 hours with drug
[24] = Table 3 tumor E2: NSCLC, multi-focal adenocarcinoma (site B), 48 hours with drug
[25] = Table 4 tumor B1: Lung adenocarcinoma (pleural effusion), 48 hours with drug
[26] = Table 4 tumor B2: Lung adenocarcinoma (solid tumor), 48 hours with drug
[27] = Table 4 tumor A1: Pancreatic islet cell cancer (lymph node), 48 hours with drug
[28] = Table 4 tumor C1: Lung small cell carcinoma (site A), 48 hours with drug
[29] = Table 4 tumor C2: Lung adenocarcinoma (site B), 48 hours with drug

Row | SMILES | kinetic units (KU) of apoptosis [1, 16] [KU] | kinetic units (KU) of apoptosis [2, 17] [KU] | kinetic units (KU) of apoptosis [3, 18] [KU] | kinetic units (KU) of apoptosis [4, 19] [KU] | kinetic units (KU) of apoptosis [5, 20] [KU] | kinetic units (KU) of apoptosis [6, 21] [KU] | kinetic units (KU) of apoptosis [7, 22] [KU] | kinetic units (KU) of apoptosis [8, 23] [KU] | kinetic units (KU) of apoptosis [9, 24] [KU] | kinetic units (KU) of apoptosis [10, 25] [KU] | kinetic units (KU) of apoptosis [11, 26] [KU] | kinetic units (KU) of apoptosis [12, 27] [KU] | kinetic units (KU) of apoptosis [15] [KU] | kinetic units (KU) of apoptosis [13, 28] [KU] | kinetic units (KU) of apoptosis [14, 29] [KU] | other results
1 | O=P1(N(CCCl)CCCl)NCCCO1 (stereo not drawn) [4HC (Cytoxan), Cytoxan] |  |  |  |  |  |  |  |  |  |  |  |  |  |  |  | kinetic units (KU) of apoptosis [1]: 3.10 KU; kinetic units (KU) of apoptosis [2]: 1.10 KU; kinetic units (KU) of apoptosis [3]: 1.20 KU; kinetic units (KU) of apoptosis [4]: 0.60 KU; kinetic units (KU) of apoptosis [5]: 0.00 KU; kinetic units (KU) of apoptosis [6]: 1.20 KU; kinetic units (KU) of apoptosis [7]: 1.20 KU; kinetic units (KU) of apoptosis [8]: 0.50 KU; kinetic units (KU) of apoptosis [9]: 0.30 KU; kinetic units (KU) of apoptosis [10]: 1.20 KU; kinetic units (KU) of apoptosis [11]: 2.40 KU; kinetic units (KU) of apoptosis [12]: 3.00 KU; kinetic units (KU) of apoptosis [13]: 1.80 KU; kinetic units (KU) of apoptosis [14]: 2.40 KU
2 | N.N.O=C([O-])C1(C(=O)[O-])CCC1.[Pt+2] [Carboplatin] | 1.50 | 1.90 | 2.20 | 0.40 | 1.20 | 1.00 | 0.80 | 0.30 | 0.30 | 1.20 | 2.40 | 1.08 | 1.48 | 5.30 | 2.60 | 
3 | N.N.[Cl][Pt][Cl] [Cisplatin] | 2.80 | 1.50 | 2.10 | 0.00 | 2.10 | 1.00 | 1.00 | 0.80 | 0.50 | 2.20 | 2.20 | 1.31 | 1.75 | 6.40 | 5.40 | 
4 | CC(=O)O[C@@]12CO[C@@H]1C[C@H](O)[C@@]1(C)C(=O)[C@H](O)C3=C(C)[C@@H](OC(=O)[C@H](O)[C@@H](NC(=O)OC(C)(C)C)c4ccccc4)C[C@@](O)([C@@H](OC(=O)c4ccccc4)[C@H]21)C3(C)C [Docetaxel] | 1.10 | 2.60 | 2.00 | 0.90 | 2.30 | 0.50 | 0.70 | 0.90 | 0.20 | 4.20 | 2.40 | 3.20 | 2.65 | 3.20 | 2.10 | 
5 | COc1cccc2c1C(=O)c1c(O)c3c(c(O)c1C2=O)C[C@@](O)(C(=O)CO)C[C@@H]3O[C@H]1C[C@H](N)[C@H](O)[C@H](C)O1 [Doxorubicin] | 3.80 | 1.70 | 0.90 | 0.80 | 1.50 | 1.50 | 1.40 | 1.60 | 1.50 | 3.50 | 3.50 | 1.27 | 2.06 | 1.60 | 0.90 | 
6 | Nc1ccn([C@@H]2O[C@H](CO)[C@@H](O)C2(F)F)c(=O)n1 [Gemcitabine] | 0.70 | 1.20 | 1.10 | 0.00 | 0.70 | 0.10 | 0.90 | 0.30 | 0.50 | 1.10 | 3.20 | 1.08 |  | 2.20 | 1.30 | 
7 | CC(=O)O[C@H]1C(=O)[C@@]2(C)[C@H]([C@H](OC(=O)c3ccccc3)[C@]3(O)C[C@H](OC(=O)[C@H](O)[C@@H](NC(=O)c4ccccc4)c4ccccc4)C(C)=C1C3(C)C)[C@]1(OC(C)=O)CO[C@@H]1C[C@@H]2O [Paclitaxel] | 1.40 | 1.70 | 0.90 | 0.00 | 1.00 | 1.40 | 0.90 | 0.00 | 0.50 | 3.00 | 4.00 | 3.43 | 2.06 | 1.70 | 3.60 | 
8 | CCC1=C[C@@H]2CN(C1)Cc1c([nH]c3ccccc13)[C@@](C(=O)OC)(c1cc3c(cc1OC)N(C)[C@H]1[C@@](O)(C(=O)OC)[C@H](OC(C)=O)[C@]4(CC)C=CCN5CC[C@]31[C@@H]54)C2 [Vinorelbine] | 2.10 | 1.20 | 1.70 | 0.20 | 0.00 | 0.40 | 1.00 | 0.40 | 0.00 | 3.90 | 2.70 | 1.18 |  | 3.50 | 2.50 | 

Source: patent US20230184744A1, “INTERTUMORAL HOMOGENEITY DETERMINED BY MiCK ASSAY” (Pierian Biosciences, LLC, priority 2014, published 2023)
